# Measurements taken from patent US7456220B2, “Immunodulatory compositions and methods of use thereof” (priority 1999, dated 2008).
# Tested on: gentamicin resistant Escherichia coli
# Assay: Rat sepsis model, mortality vs. saline control (Example 15)
# Type: in vivo, Wistar rats
# Settings: Gentamicin 2 mg, gel 2 ml I.M., 24 hours before challenge, Group D mixture, timing not given
# Protocol: The model system utilizes Wistar rats surgically implanted with an inoculum of intestinal contents from other rats. The inoculum is prepared in a manner which simulates the microbiologic parameters of the human colon. This is accomplished by placing rats on a diet of lean ground beef for two weeks, and then harvesting, homogenizing and freezing aliquots of prepared intestinal contents for subsequent use. The clinical end points for evaluation in this model are mortality, while microbiologic end points include blood and peritoneal cultures. The general experimental design and methods are as follows.
# Male, Wistar, virus antibody free (VAF) rats (Charles River Laboratories, Wilmington, Mass.), weighing 175-200 grams, are utilized for all experiments. All animals are housed, five per cage, within a VAF facility, and given food and water ad libitum, except for those animals used for preparation of the meat-fed cecal inoculum (see below). Animal experiments are carried out according to the guidelines of the Harvard Medical Area Standing Committee on Animals, in facilities accredited by the American Association for the Accreditation of Laboratory Animal Care.
# The innoculum for this study is prepared as described in A. Onderdonk et al., Experimental intra-abdominal abscesses in rats; quantitative bacteriology of infected animals. Infection and Immunity, 10:1256-9 (1974); and A. Onderdonk et al., Experimental intra-abdominal abscesses in rats: development of animal model. Infection and Immunity, 10:1256-1259 (1974). Briefly, cecal contents from meat-fed rats are combined with peptone-yeast-glucose broth to form a slurry. This slurry is filtered through gauze to remove large particulate material, aliquoted and frozen at −80° C. until used. Preliminary testing of this inoculum is performed to determine the proper dilution of the inoculum to yield a mortality of 60%-70% in an untreated group.
# Animals are anesthetized with Nembutal (50 mg/Kg), and prepared for surgical implantation of the inoculum by shaving the abdomen and applying an iodine solution. A 3-4 cm midline incision is made through the skin and anterior abdominal wall, and a gelatin capsule containing 0.5 mL of the inoculum is inserted into the pelvic region. The incision is closed with one 3-0 suture, and the animals are observed four times per day for the first 48 hours, and every eight hours thereafter. Visibly moribund animals are humanely sacrificed with CO2.
# Groups of twenty animals each are implanted with the inoculum described above. For each experiment, a control group of sham-treated animals is employed. For experiments in which quantitative blood and peritoneal cultures are obtained, sufficient additional animals are implanted to allow for such cultures, but mortality in these groups is not included in the clinical outcome calculations, due to the additional manipulation of the animals. Surviving animals from each group are sacrificed after seven days.
# A comparison of groups with regard to mortality is made by chi-square analysis as supplied on commercially available statistical software (Instat, GraphPad Software, San Diego, Calif.). A comparison group mean bacterial count is made using Student's T test.
# Animals were divided into Groups A, B, C and D, with each Group containing 15 animals. All groups were challenged with 2.629 ml gentamicin resistant Escherichia coli, 0.32 ml Dextran Sulfate, and 29.051 ml Peptone Yeast Glucose. Group A was treated 2 hours after challenge, while Groups B and C were treated 24 hours before challenge. Group A was treated with 2 ml saline I.M.; Group B was treated with 2 mg Gentamicin; Group C was treated with 2 ml HA/CMC/EDC gel I.M.; and Group D was treated with a mixture of Gentamicin and HA/CMC/EDC gel.
# The animals were held for 48 hours, and assessed for mortality vs. the saline control.
substance,measurement,setting,value
Gentamicin,% mortality,24 hr,23.1%
same,mortalities (M),24 hr,3
same,surviving animals (A),24 hr,10
same,% mortality,48 hr,38.5%
same,mortalities (M),48 hr,2
same,surviving animals (A),48 hr,8
same,% mortality,Total,38.5%
same,mortalities (M),Total,5
same,surviving animals (A),Total,8
